Laboratory results: PMC8482776 (ACS Omega, 2021)
In brackets after ≈: the same amount, converted by molar mass. Several values for one entry are separate records, joined by “and”; a condition that tells them apart may be missing. Identical values can stand only once.

Legend:
[1] = system: Asp. nidulans (PTCC 5014); assay: Microdilution MIC90, strain F; type: cell-based, Aspergillus nidulans; details: Aspergillus nidulans, PTCC5014, 48 h, filamentous fungi, 48 h at 37 °C, triplicate
[2] = system: Asp. terreus (PTCC 5023); assay: Microdilution MIC90, strain J; type: cell-based, Aspergillus terreus; details: Aspergillus terreus, PTCC5023, 48 h, filamentous fungi, 48 h at 37 °C, triplicate
[3] = system: Asp. niger (PTCC 5154); assay: Microdilution MIC90, strain I; type: cell-based, Aspergillus niger; details: Aspergillus niger, PTCC5154, 48 h, filamentous fungi, 48 h at 37 °C, triplicate
[4] = system: Microsporum gypseum (PTCC 5070); assay: Microdilution MIC90, strain L; type: cell-based; details: filamentous fungi, 48 h at 37 °C, triplicate
[5] = system: C. tropicalis (PTCC 5028); assay: Microdilution MIC90, strain E; type: cell-based; details: 24 h
[6] = system: C. parapsilosis (ATCC 22019); assay: Microdilution MIC90, strain D; type: cell-based; details: 24 h
[7] = system: C. krusei (ATCC 6258); assay: Microdilution MIC90, strain B; type: cell-based; details: 24 h, yeast, 24 h at 37 °C, triplicate
[8] = system: C. glabrata (ATCC 90030); assay: Microdilution MIC90, strain C; type: cell-based; details: 24 h, yeast, 24 h at 37 °C, triplicate
[9] = system: T. mentagrophytes (PTCC 5054); assay: Microdilution MIC90, strain M; type: cell-based; details: Trichophyton mentagrophytes, PTCC5054, 48 h
[10] = system: M. canis (PTCC 5069); assay: Microdilution MIC90, strain O; type: cell-based; details: Microsporum canis, PTCC5069, 48 h
[11] = system: C. albicans (ATCC 10231); assay: Microdilution MIC90, strain A; type: cell-based; details: 24 h, strain A, yeast, 24 h at 37 °C, triplicate
[12] = system: T. schoenleinii (PTCC 5221); assay: Microdilution MIC90, strain N; type: cell-based; details: Trichophyton schoenleinii, PTCC5221, 48 h
[13] = system: Asp. flavus (ATCC 204304); assay: Microdilution MIC90, strain G; type: cell-based, Aspergillus flavus; details: filamentous fungi, 48 h at 37 °C, triplicate
[14] = system: T. rubrum (PTCC 5143); assay: Microdilution MIC90, strain K; type: cell-based, Trichophyton rubrum; details: filamentous fungi, 48 h at 37 °C, triplicate
[15] = system: Asp. fumigatus (PTCC 5009); assay: Microdilution MIC90, strain H; type: cell-based; details: Aspergillus fumigatus, PTCC5009, 48 h, filamentous fungi, 48 h at 37 °C, triplicate
[16] = system: FLC-resistant clinical Candida isolate R2 (C. albicans); assay: PMIC90, FLC-resistant isolate R2; type: cell-based; details: strain R2, planktonic
[17] = system: FLC-resistant clinical Candida isolates (R1–R7); assay: PMIC, seven FLC-resistant clinical Candida isolates; type: cell-based; details: read-out: MIC (growth inhibition concentrations)
[18] = system: FLC-resistant clinical Candida isolate R4 (C. albicans); assay: PMIC90, FLC-resistant isolate R4; type: cell-based; details: strain R4, planktonic
[19] = system: C. albicans (ATCC 10231); assay: Murine model of systemic candidiasis; type: in vivo; details: neutropenic mice (n = 5), 15 mg/kg oral gavage, left kidney tissue
[20] = system: FLC-resistant clinical Candida isolate R3 (C. albicans); assay: PMIC90, FLC-resistant isolate R3; type: cell-based; details: strain R3, planktonic
[21] = system: dermatophyte isolates K–O; assay: Microdilution MIC, dermatophyte isolates K–O; type: cell-based
[22] = system: FLC-resistant clinical Candida isolate R1 (C. albicans); assay: PMIC90, FLC-resistant isolate R1; type: cell-based; details: strain R1, planktonic
[23] = system: FLC-resistant clinical Candida isolate R7 (C. glabrata); assay: PMIC90, FLC-resistant isolate R7; type: cell-based; details: strain R7, planktonic
[24] = system: FLC-resistant clinical Candida isolate R6 (C. albicans); assay: PMIC90, FLC-resistant isolate R6; type: cell-based; details: strain R6, planktonic
[25] = system: C. albicans (ATCC 10231); assay: Time-kill assay; type: cell-based; details: […]; 64 μg/mL for FLC), 24 h period
[26] = system: FLC-resistant clinical Candida isolate R5 (C. albicans); assay: PMIC90, FLC-resistant isolate R5; type: cell-based; details: strain R5, planktonic
[27] = system: human red blood cells (hRBCs); assay: Hemolysis assay; type: cell-based; details: positive control, 2 h at 37 °C
[28] = Aspergillus flavus, ATCC204304, 48 h
[29] = Trichophyton rubrum, PTCC5143, 48 h

## Cc1ccc(NC(=O)Nc2nnc(SCC(O)(Cn3cncn3)c3ccc(F)cc3F)s2)cc1Cl (stereo not shown) [Compound 8r, 1-(3-Chloro-4-methylphenyl)-3-(5-((2-(2,4-difluorophenyl)-2-hydroxy-3-(1H-1,2,4-triazol-1-yl)propyl)thio)-1,3,4-thiadiazol-2-yl)urea]
[1]
  MIC90: 8 µg/mL (≈ 14.9 µM)
[2]
  MIC90: 16 µg/mL (≈ 29.7 µM)
[3]
  MIC90: 32 µg/mL (≈ 59.5 µM)
[4]
  MIC90: 4 μg·mL^–1
[5]
  MIC90: 64 µg/mL (≈ 119 µM)
[6]
  MIC90: 16 µg/mL (≈ 29.7 µM)
[7]
  MIC90: 32 µg/mL (≈ 59.5 µM)
[8]
  MIC90: 32 µg/mL (≈ 59.5 µM)
[9]
  MIC90: 16 µg/mL (≈ 29.7 µM)
[10]
  MIC90: 32 µg/mL (≈ 59.5 µM)
[11]
  MIC90: 64 µg/mL (≈ 119 µM)
[12]
  MIC90: 32 µg/mL (≈ 59.5 µM)
[13]; [28]
  MIC90: 2 to 4 µg/mL (≈ 3.72 to 7.43 µM)
[13]
  MIC90: 4 μg·mL^–1
[14]; [29]
  MIC90: 2 to 4 µg/mL (≈ 3.72 to 7.43 µM)
[14]
  MIC90: 4 μg·mL^–1
[15]
  MIC90: 32 µg/mL (≈ 59.5 µM)

## OC(Cn1cncn1)(Cn1cncn1)c1ccc(F)cc1F [FLC, Fluconazole, reference compound]
[2]
  MIC90: 4 µg/mL (≈ 13.1 µM)
[16]
  PMIC90: >64 µg/mL
[3]
  MIC90: 4 µg/mL (≈ 13.1 µM)
[17]
  MIC: ≥ 64 µg/mL
[18]
  PMIC90: >64 µg/mL
[19]
  kidney fungal burden, CFU/g (mean ± SD): 512 CFU/g and 512 ± 63.5 ^b CFU/g
[20]
  PMIC90: >64 µg/mL
[5]
  MIC90: 4 µg/mL (≈ 13.1 µM)
[6]
  MIC90: 4 µg/mL (≈ 13.1 µM)
[7]
  MIC90: 16 µg/mL (≈ 52.2 µM)
[21]
  MIC: 1 to 4 µg/mL (≈ 3.27 to 13.1 µM)
[22]
  PMIC90: >64 µg/mL
[23]
  PMIC90: >64 µg/mL
[8]
  MIC90: 16 µg/mL (≈ 52.2 µM)
[9]
  MIC90: 4 µg/mL (≈ 13.1 µM)
[24]
  PMIC90: >64 µg/mL
[10]
  MIC90: 1 µg/mL (≈ 3.27 µM)
[11]
  MIC90: 16 µg/mL (≈ 52.2 µM)
[12]
  MIC90: 2 µg/mL (≈ 6.53 µM)
[13]; [28]
  MIC90: 2 µg/mL (≈ 6.53 µM)
[14]; [29]
  MIC90: 1 µg/mL (≈ 3.27 µM)
[25]
  time-kill effect at 4 × MIC: no significant effect
[26]
  PMIC90: >64 µg/mL
[15]
  MIC90: 4 µg/mL (≈ 13.1 µM)

## C[C@@H](c1ncncc1F)[C@](O)(Cn1cncn1)c1ccc(F)cc1F [VOR, voriconazole, reference compound]
[19]
  kidney fungal burden, CFU/g (mean ± SD): 318 CFU/g and 318 ± 66.5 ^b CFU/g

## Triton X-100 [reference compound]
[27]
  hemolysis: 86.2%
